The values below come from US9883997B2, “Cosmetic compositions with tricyclodecane amides” (Conopco, Inc., priority 2013, dated 2018).

Like-named read-outs stand apart in the source and are kept apart here.

The nature of data set [1]: Precursor cosmetic compositions evaluated for crystals content, i.e. solubility of solid agent in the liquid agent (Example 29). It is filed as physicochemical. The method, then:
The following precursor cosmetic compositions were prepared and evaluated for crystals content, i.e. solubility of solid agent in the liquid agent.
The composition is heated to a temperature above the melting point of the highest melting compound, then allowed to cool to room temperature. […] In the case of end use cosmetic compositions visualization of the crystals of solid agent was done by comparing a sample with and without tricyclodecane amide and observing the formation of crystals, if any, under the optical microscope fitted with cross-polarizers at a magnification of 10× or higher.

The conditions of data set [2]: cited from earlier work.
[3] abbreviates: 2-HEU (16.6%) in OMC (50%), [S]/[L] 0.3, amide (33.3%), 24 hours.
Setting [4] is: 12HSA (16.6%) in OMC (50%), [S]/[L] 0.3, amide or comparator (33%), 24 hours.
Where [5] appears, read: Cholesterol (16.6%) in OMC (50%), [S]/[L] 0.3, amide or comparator (33.3%), 24 hours.
The mark [6] stands for this setting: Climbazole (28.5%) in OMC (42.8%), [S]/[L] 0.7, amide (28.5%), 24 hours.
The mark [7] stands for this setting: Climbazole (28.5%) in Pelemol GTIS (42.8%), [S]/[L] 0.7, amide (28.5%), 24 hours.
Setting [8] is: Niacinamide (9.1%) in PPG425 (54.5%), [S]/[L] 0.2, amide (36.4%), observation at 12 hours.
[9] abbreviates: Niacinamide (10%) in Glucam P-20 (55%), [S]/[L] 0.2, amide (35%), 24 hours.
Setting [10] is: Cholesterol (18%) in retinol proprionate (50%), [S]/[L] 0.4, amide or comparator (32%), observation at 12 hours.
Setting [11] is: retinyl palmitate (28.5%) in OMC (42.8%), [S]/[L] 0.7, amide or comparator (28.5%), 24 hours.
The mark [12] stands for this setting: liquid cosmetic agents, Table 2.

Consider `NC(=O)NCCO` [2-hydroxyethyl urea], for which the “Appearance after cooling - observation at 24 hours, except as noted” value (shortened to “Appearance after cooling - observation”) in data set [1] (2-HEU (24.9%) in OMC (75.1%), [S]/[L] 0.3, no tricyclodecaneamide, 24 hours) is on record as “crystal + liquid”. For the same molecule, the “Log Po/w” value in data set [2] (solid cosmetic agents, Table 1) was −0.86.

For `CC(C)(C)C(=O)C(Oc1ccc(Cl)cc1)n1ccnc1` (stereo not drawn) [Climbazole], the “Appearance after cooling - observation” value is given as “crystal + liquid” in data set [1] (Climbazole (10%) in Pelemol GTIS (90%), [S]/[L] 0.1, no tricyclodecaneamide, 24 hours); “crystal + liquid” in data set [1] (Climbazole (30%) in OMC (70%), [S]/[L] 0.4, no tricyclodecaneamide, 24 hours); “crystals + liquid” in data set [1] (Climbazole (40%) in PPG425 (60%), [S]/[L] 0.7, no tricyclodecaneamide, 24 hours). The “Log Po/w” value in data set [2] (solid cosmetic agents, Table 1) is given as 3.49.

In the case of `O=C(N1CCCC2CCCCC21)C12CC3CC(CC(C3)C1)C2` (stereo not drawn) [Compound C10, Methanone, (decahydroquinolinyl)tricyclo[3.3.1.1^3,7]dec-1-yl-], the “Appearance after cooling - observation” value is “clear liquid” in data set [1] (setting [3]); “translucent gel” in data set [1] (setting [4]); “Clear liquid” in data set [1] (setting [5]); “clear liquid” in data set [1] (setting [6]); “clear liquid” in data set [1] (setting [7]); “clear liquid” in data set [1] (setting [8]). Further, the “Appearance after cooling - observation” value in data set [1] (setting [9]) is “clear liquid”.

For `CC1CCCN(C(=O)C23CC4CC(CC(C4)C2)C3)C1` (stereo not drawn) [Compound C14, Methanone, (3-methyl-1-piperidinyl)tricyclo[3.3.1.1^3,7]dec-1-yl-], the “Appearance after cooling - observation” value in data set [1] (setting [3]) is “clear liquid”; in data set [1] (2-HEU (42%) in OMC (33%), [S]/[L] 1.3, amide (25%), 24 hours), “crystal + liquid”; in data set [1] (setting [4]), “translucent gel”; in data set [1] (12HSA (16.6%) in Pelemol TISC (50%), [S]/[L] 0.3, amide (33%), 24 hours) it was “translucent gel”; in data set [1] (Avobenzone (28.5%) in Propylene glycol (42.8%), [S]/[L] 0.7, amide (28.5%), 24 hours) it was “Crystal + liquid”; in data set [1] (Cholesterol (10%) in conjugated linoleic acid (45%), [S]/[L] 0.2, amide (45%), 24 hours) it was “clear liquid”. Besides, the “Appearance after cooling - observation” value in data set [1] (setting [5]) is “Clear liquid”; in data set [1] (setting [10]), “clear liquid”; in data set [1] (Cholesterol (35%) in OMC (32%), [S]/[L] 1.1, amide (33%), 24 hours), “crystal + liquid”; in data set [1] (Cholesterol (40%) in conjugated linoleic acid (30%), [S]/[L] 1.3, amide (30%), 24 hours), “crystals + liquid”; in data set [1] (Cholesterol (45%) in retinol proprionate (35%), [S]/[L] 1.3, amide (20%), observation at 12 hours), “opaque solid”; in data set [1] (setting [6]) it was “clear liquid”. Also, the “Appearance after cooling - observation” value is reported as “clear liquid” in data set [1] (Climbazole (28.5%) in PPG425 (42.8%), [S]/[L] 0.7, amide (28.5%), 24 hours); “clear liquid” in data set [1] (setting [7]); “crystals + liquid” in data set [1] (Climbazole (45%) in PPG425 (35%), [S]/[L] 1.3, amide (20%), 24 hours); “crystal + liquid” in data set [1] (Climbazole (50%) in Pelemol GTIS (25%), [S]/[L] 2, amide (25%), 24 hours); “crystal + liquid” in data set [1] (Climbazole (55%) in OMC (22.5%), [S]/[L] 2.4, amide (22.5%), 24 hours); “clear liquid” in data set [1] (Methyl Paraben (40%) in PPG-425 (40%), [S]/[L] 1, amide (20%), 24 hours). Also, the “Appearance after cooling - observation” value in data set [1] (Methyl Paraben (60%) in PPG-425 (25%), [S]/[L] 2, amide (15%), 24 hours) is reported as “crystal + liquid”; in data set [1] (setting [8]), “clear liquid”; in data set [1] (setting [9]), “clear liquid”; in data set [1] (Niacinamide (35%) in Glucam P-20 (25%), [S]/[L] 1.4, amide (40%), 24 hours), “crystal + liquid”; in data set [1] (Niacinamide (35%) in PPG425 (32.5%), [S]/[L] 1.1, amide (32.5%), observation at 12 hours), “opaque solid”; in data set [1] (Salicylic acid (15%) in conjugated linoleic acid (35%), [S]/[L] .4, amide (50%), 24 hours), “clear liquid”. The “Appearance after cooling - observation” value in data set [1] (Salicylic acid (18%) in OMC (50%), [S]/[L] 0.4, amide (32%), 24 hours) is reported as “clear liquid”; in data set [1] (Salicylic acid (42%) in conjugated linoleic acid (33%), [S]/[L] 1.3, amide (25%), 24 hours), “opaque solid”; in data set [1] (Salicylic acid (60%) in OMC (25%), [S]/[L] 2.4, amide (15%), 24 hours), “crystal + liquid”; in data set [1] (setting [11]), “clear liquid”.

`CC(C)(C)CC(C)(C)NC(=O)C12CC3CC(CC(C3)C1)C2` [Compound C21, Methanone, (1,1-dimethyl-3,3-dimethylbutylaminyl) tricyclo[3.3.1.1^3,7]dec-1-yl-]: the “Appearance after cooling - observation” value was “Translucent gel” in data set [1] (setting [3]); “Clear liquid” in data set [1] (Avobenzone (28%) in OMC (40%), [S]/[L] 0.7, amide (32%), 24 hours); “crystals + liquid” in data set [1] (Avobenzone (45%) in OMC (27.5%), [S]/[L] 1.6, amide (27.5%), 24 hours); “Translucent gel” in data set [1] (setting [5]); “clear liquid” in data set [1] (setting [6]); “clear liquid” in data set [1] (setting [7]). For the same molecule, the “Appearance after cooling - observation” value in data set [1] (setting [9]) was “clear liquid”.

In the case of `O=C(O)CO` [Glycolic acid], in data set [2] (solid cosmetic agents, Table 1), the “Log Po/w” value is recorded as −1.2.

As to `CCCCCCCCCCCCCC(=O)OC(C)C` [Isopropyl myristate], the “Log Po/w” value in data set [2] (setting [12]) is on record as 7.25.

For `NC(=O)c1cccnc1` [Niacinamide], the “Appearance after cooling - observation” value is “crystal + liquid” in data set [1] (Niacinamide (10%) in Glucam P-20 (90%), [S]/[L] 0.1, no tricyclodecaneamide, 24 hours) and “opaque solid” in data set [1] (Niacinamide (14.5%) in PPG425 (85.5%), [S]/[L] 0.2, no tricyclodecaneamide, observation at 12 hours). Further, the “Log Po/w” value in data set [2] (solid cosmetic agents, Table 1) was −0.37.

For the molecule `CCCCC(CC)COC(=O)C=Cc1ccc(OC)cc1` (stereo not drawn) [Octylmethoxycinnamate], the “Log Po/w” value in data set [2] (setting [12]) was 5.92.

`CC(O)CO` (stereo not drawn) [Propylene glycol]: the “Log P” value in data set [2] (liquid agent named in Table 3) was “P~−1.3)”.

For `Oc1cc(Cl)ccc1Oc1ccc(Cl)cc1Cl` [Triclosan], the “Log Po/w” value in data set [2] (solid cosmetic agents, Table 1) is 5.34.

Take `CC(C)CCCCCCCCCCCCCCC(=O)OC(C)C` [isopropyl isostearate]: the “Log Po/w” value in data set [2] (setting [12]) is listed as 9.14.

For `CCCCCCCCCCCCCCCCCC(N)=O` [octadecanamide, reference compound], the “Appearance after cooling - observation” value in data set [1] (setting [4]) is listed as “opaque solid”; in data set [1] (setting [5]), “crystal + liquid”; in data set [1] (setting [10]) it was “opaque solid”; in data set [1] (Climbazole (16.6%) in OMC (50%), [S]/[L] 0.7, straight chain comparator (33.3%), 24 hours), “crystal + liquid”; in data set [1] (setting [11]), “crystal + liquid”.

In the case of `CCCCC(CC)COC(=O)C(C#N)=C(c1ccccc1)c1ccccc1` (stereo not drawn) [octocrylene], the “Log Po/w” value in data set [2] (setting [12]) was 6.89.

Consider `NC(=O)c1ccccc1C(N)=O` [phthalamide, reference compound], for which the “Appearance after cooling - observation” value in data set [1] (setting [4]) is on record as “opaque solid”.

`CCCCCCCCCCCCCC(=O)NC1CCCC(C)C1` (stereo not drawn) [tetradecanoic acid (3 methyl-cyclohexyl)-amide, reference compound]: in data set [1] (Avobenzone (45%) in OMC (27.5%), [S]/[L] 2, straight chain comparator (27.5%), 24 hours), the “Appearance after cooling - observation” value is “crystals + liquid”.

As to Conjugated linoleic acid, the “Log Po/w” value in data set [2] (setting [12]) is given as over 6.
